Results: patent publication US9428726B2, “Modified host cells with efflux pumps” (priority 2010, dated 2016)
Like-named read-outs stand apart in the source and are kept apart here.

Legend:
E. coli DH1 ΔacrAB [1] = settings: for biofuel level that inhibited growth: added to pooled culture in M9 minimal medium, aimed at an inhibitory concentration that reduced growth by 25%; for toxicity of the biofuel to cell growth: E. coli host, in words
Experimental: In order to screen the efflux pump library against a variety of biofuels we devised a competition-based strategy to select for pumps that improved biofuel tolerance (FIG. 1A). Cells containing plasmids with individual pumps were grown separately and then pooled so that all individual strains were represented equally. This pooled culture was then grown both with and without biofuel, and maintained through serial dilutions every 10-14 hours over a total of 96 hours. At each dilution time point, plasmids from each culture were isolated and a custom microarray was used to quantify the amount of each efflux pump plasmid present in the culture (Methods).
Pooled culture glycerol stocks were used to inoculate M9 minimal medium with 30 μg/ml kanamycin and 10 μM IPTG. The culture was then divided into tubes to a final volume of 5 ml and biofuel was added directly to the tubes. All conditions were prepared in triplicate. Cultures were grown at 37° C. with orbital shaking at 200 rpm for all experiments.
Every 10-14 hours the cultures were diluted 1:100 into 5 ml of fresh M9 minimal medium with kanamycin, IPTG, and biofuel (where applicable). For the time-course assay, cultures were spun down at the completion of a growth cycle and plasmids were isolated. For end point competition assays, plasmid was isolated from the culture after 72 hours of serial dilution.
Custom microarrays (NimbleGen, Roche, USA) were used to measure the relative quantities of the efflux pumps present in the plasmid DNA isolated from the competition cultures. Arrays were designed so that they contained probes for all HAE1 annotated efflux pumps from all sequenced bacterial genomes. 12×135K arrays were used to allow for 12 experiments per slide.
Plasmid DNA was labeled and hybridized following the protocol for NimbleGen Comparative Genomic Hybridization Microarrays with minor modifications (Supporting Methods). Data were normalized using the standard settings for RMA analysis in the NimbleScan software. Probe values were averaged using a custom Matlab script (Mathworks, Inc.). […] For the positive hybridization control, all library plasmids were prepared individually and combined in vitro in equal proportions. For the negative hybridization control, a plasmid with the same vector backbone as those in the library, but no efflux pump, was isolated from DH1 ΔacrAB. Both hybridization controls were labeled and hybridized to the array using the methods described above.
This required the use of a co-solvent in order to accurately pipette small volumes. In both cases dimethylformamide (DMF) was used as the co-solvent. […] Other biofuels were added directly without the use of a co-solvent.

E. coli DH1 ΔacrAB [2] = type: cell-based; settings: for effect of efflux pumps on tolerance to the biofuel (survival relative to pump-free negative control): top performing pump versus negative control, FIG. 3B and 3D
Experimental: Individual strains were adapted to M9 minimal medium as described in the Supporting Methods. […] The biofuel being tested was added directly to the cultures and they were grown overnight at 37° C. with orbital shaking. For end point measurements, the optical density was measured after 14 hours of growth in triplicate 5 ml cultures. For growth curve measurements, cultures were grown in triplicate in 24-well plates with 800 μl per well and optical density was measured every 10 minutes with a plate reader (BioTek Synergy 4, USA).

[3] = 2% geranyl acetate, serial dilution competition

Molecule	biofuel level that inhibited growth (E. coli DH1 ΔacrAB [1]) [% v/v]	effect of efflux pumps on tolerance to the biofuel (survival relative to pump-free negative control) (E. coli DH1 ΔacrAB [2])	toxicity of the biofuel to cell growth (E. coli DH1 ΔacrAB [1])	outcome of efflux pump in competition (E. coli DH1 ΔacrAB [1]; [3])	further results
CC(=O)OC/C=C(\C)CCC=C(C)C [geranyl acetate]	2	essentially confer immunity			
CCCCO [n-butanol]	0.5	none of the pumps we tested confer an advantage	toxic		
CC(C)=CCC/C(C)=C/CO [geraniol]	0.05	increase survival several-fold	high and quite toxic		
CC(C)CCO [isopentanol]	0.25	none of the pumps we tested confer an advantage	toxic		
MexB: Pseudomonas aeruginosa PAO1 MexAB-OprM multidrug efflux pump (protein, UniProt P52002 1-1046, looked up) Multidrug resistance protein …: MSKFFIDRPIFAWVIALVIMLAGGLSILSLPVNQYPAIAPPAIAVQVSYPGASAETVQDTVVQVIEQQMNGIDNLRYISSESNSDGSMTITVTFEQGTDPDIAQVQVQNKLQLATPLLPQEVQRQGIRVTKAVKNFLMVVGVVSTDGSMTKEDLSNYIVSNIQDPLSRTKGVGDFQVFGSQYSMRIWLDPAKLNSYQLTPGDVSSAIQAQNVQISSGQLGGLPAVKGQQLNATIIGKTRLQTAEQFENILLKVNPDGSQVRLKDVADVGLGGQDYSINAQFNGSPASGIAIKLATGANALDTAKAIRQTIANLEPFMPQGMKVVYPYDTTPVVSASIHEVVKTLGEAILLVFLVMYLFLQNFRATLIPTIAVPVVLLGTFGVLAAFGFSINTLTMFGMVLAIGLLVDDAIVVVENVERVMAEEGLSPREAARKSMGQIQGALVGIAMVLSAVFLPMAFFGGSTGVIYRQFSITIVSAMALSVIVALILTPALCATMLKPIEKGDHGEHKGGFFGWFNRMFLSTTHGYERGVASILKHRAPYLLIYVVIVAGMIWMFTRIPTAFLPDEDQGVLFAQVQTPPGSSAERTQVVVDSMREYLLEKESSSVSSVFTVTGFNFAGRGQSSGMAFIMLKPWEERPGGENSVFELAKRAQMHFFSFKDAMVFAFAPPSVLELGNATGFDLFLQDQAGVGHEVLLQARNKFLMLAAQNPALQRVRPNGMSDEPQYKLEIDDEKASALGVSLADINSTVSIAWGSSYVNDFIDRGRVKRVYLQGRPDARMNPDDLSKWYVRNDKGEMVPFNAFATGKWEYGSPKLERYNGVPAMEILGEPAPGLSSGDAMAAVEEIVKQLPKGVGYSWTGLSYEERLSGSQAPALYALSLLVVFLCLAALYESWSIPFSVMLVVPLGVIGALLATSMRGLSNDVFFQVGLLTTIGLSAKNAILIVEFAKELHEQGKGIVEAAIEACRMRLRPIVMTSLAFILGVVPLAISTGAGSGSQHAIGTGVIGGMVTATVLAIFWVPLFYVAVSTLFKDEASKQQASVEKGQ				survived the competition	outcome of efflux pump in competition (E. coli DH1 ΔacrAB [1]; 2% α-pinene, 72 hours serial dilution): borderline survivor; growth of individual pump-expressing strain (E. coli DH1 ΔacrAB [2]; with 2% α-pinene, grown independently): survives well in α-pinene for the first 10 hours
AcrB: Escherichia coli K12 AcrAB efflux pump, plasmid-based copy (protein, UniProt P31224 1-1049, looked up) Multidrug efflux pump subunit …: MPNFFIDRPIFAWVIAIIIMLAGGLAILKLPVAQYPTIAPPAVTISASYPGADAKTVQDTVTQVIEQNMNGIDNLMYMSSNSDSTGTVQITLTFESGTDADIAQVQVQNKLQLAMPLLPQEVQQQGVSVEKSSSSFLMVVGVINTDGTMTQEDISDYVAANMKDAISRTSGVGDVQLFGSQYAMRIWMNPNELNKFQLTPVDVITAIKAQNAQVAAGQLGGTPPVKGQQLNASIIAQTRLTSTEEFGKILLKVNQDGSRVLLRDVAKIELGGENYDIIAEFNGQPASGLGIKLATGANALDTAAAIRAELAKMEPFFPSGLKIVYPYDTTPFVKISIHEVVKTLVEAIILVFLVMYLFLQNFRATLIPTIAVPVVLLGTFAVLAAFGFSINTLTMFGMVLAIGLLVDDAIVVVENVERVMAEEGLPPKEATRKSMGQIQGALVGIAMVLSAVFVPMAFFGGSTGAIYRQFSITIVSAMALSVLVALILTPALCATMLKPIAKGDHGEGKKGFFGWFNRMFEKSTHHYTDSVGGILRSTGRYLVLYLIIVVGMAYLFVRLPSSFLPDEDQGVFMTMVQLPAGATQERTQKVLNEVTHYYLTKEKNNVESVFAVNGFGFAGRGQNTGIAFVSLKDWADRPGEENKVEAITMRATRAFSQIKDAMVFAFNLPAIVELGTATGFDFELIDQAGLGHEKLTQARNQLLAEAAKHPDMLTSVRPNGLEDTPQFKIDIDQEKAQALGVSINDINTTLGAAWGGSYVNDFIDRGRVKKVYVMSEAKYRMLPDDIGDWYVRAADGQMVPFSAFSSSRWEYGSPRLERYNGLPSMEILGQAAPGKSTGEAMELMEQLASKLPTGVGYDWTGMSYQERLSGNQAPSLYAISLIVVFLCLAALYESWSIPFSVMLVVPLGVIGALLAATFRGLTNDVYFQVGLLTTIGLSAKNAILIVEFAKDLMDKEGKGLIEATLDAVRMRLRPILMTSLAFILGVMPLVISTGAGSGAQNAVGTGVMGGMVTATVLAIFFVPVFFVVVRRRFSRKNEDIEHSHTVDHH				survived the competition	outcome of efflux pump in competition (E. coli DH1 ΔacrAB [1]; 0.025% limonene, 72 hours serial dilution): best exported; outcome of efflux pump in competition (E. coli DH1 ΔacrAB [1]; 0.05% geraniol, 72 hours serial dilution): best exported
NP_250708: Pseudomonas aeruginosa PA01 efflux pump, accession of inner membrane protein, SEQ ID NO:4 (protein, listed as Pseudomonas aeruginosa) MARFFIDRPVFAWVISLLIVLAGVLAIRFLPVAQYPDIAPPVVNVSASYPGASAKVVEEAVTAIIEREMNGAPGLLYTKATSSTGQASLTLTFRQGVNADLAAVEVQNRLKIVESRLPESVRRDGIYVEKAADSIQLIVTLTSSSGRYDAMELGEIASSNVLQALRRVEGVGKVETWGAEYAMRIWPDPAKLTSMNLSASDLVNAVRRHNARLTVGDIGNLGVPDSAPISATVKVDDTLVTPEQFGEIPLRIRADGGAIRLRDVARVEFGQSEYGFVSRVNQMTATGLAVKMAPGSNAVATAKRIRATLDELSRYFPEGVSYNIPYDTSAFVEISIRKVVSTLLEAMLLVFAVMYLFMQNFRATLIPTLVVPVALLGTFTVMLGLGFSINVLTMFGMVLAIGILVDDAIIVVENVERLMAEEGLSPHDATVKAMRQISGAIVGITVVLVSVFVPMAFFSGAVGNIYRQFAVTLAVSIGFSAFLALSLTPALCATLLRPIDADHHEKRGFFGWFNRAFLRLTGRYRNAVAGILARPIRWMLVYTLVIGVVALLFVRLPQAFLPEEDQGDFMIMVMQPEGTPMAETMANVGDVERYLAEHEPVAYAYAVGGFSLYGDGTSSAMIFATLKDWSERREASQHVGAIVERINQRFAGLPNRTVYAMNSPPLPDLGSTSGFDFRLQDRGGVGYEALVKARDQLLARAAEDPRLANVMFAGQGEAPQIRLDIDRRKAETLGVSMDEINTTLAVMFGSDYIGDFMHGSQVRKVVVQADGAKRLGIDDIGRLHVRNEQGEMVPLATFAKAAWTLGPPQLTRYNGYPSFNLEGQAAPGYSSGEAMQAMEQLMQGLPEGIAHEWSGQSFEERLSGAQAPALFALSVLIVFLALAALYESWSIPLAVILVVPLGVLGALLGVSLRGLPNDIYFKVGLITIIGLSAKNAILIIEVAKDHYQEGMSLLQATLEAARLRLRPIVMTSLAFGFGVVPLALSSGAGSGAQVAIGTGVLGGIVTATVLAVFLVPLFFLVVGRLFRLRKAPRTGNSPQIPTEQA				survived the competition	
